# What was measured:
# Type in all cases: in vivo
# [1] = tested on: POLCO, Polygonum convolvulus (wild buckwheat); assay: Greenhouse postemergence herbicidal effect (visual injury, 20-22 d)
# Excerpt: (§1) Greenhouse Trial Methodology—Evaluation of Postemergence Herbicidal Effect
# (§2) Seeds of the desired test plant species were planted in a 90:10% v/v (volume/volume) mixture of PRO-MIX® BX (Premier Tech Horticulture, Quakertown, Pa., USA) and PROFILE®GREENS GRADE™ (Profile Products LLC, Buffalo Grove, Ill., USA) planting mixture, which typically has a pH of 5.2 to 6.2 and an organic matter content of at least 50 percent, in plastic pots with a surface area of 103.2 square centimeters (cm^2). In some aspects, to help ensure good germination and healthy plants, a fungicide treatment and/or other chemical or physical treatment was applied. The plants were grown for 7-36 days (d) in a greenhouse with an approximate 14-hour (h) photoperiod which was maintained at about 23° C. during the day and 22° C. during the night. Nutrients and water were added on a regular basis and supplemental lighting was provided with overhead metal halide 1000-Watt lamps as necessary. The plants were employed for testing when they reached the second or third true leaf stage.
# (§3) Emulsifiable concentrates of each of each pyridine carboxylate herbicide (Compound A or Compound B) were prepared at 100 grams acid equivalent per liter (g ae/L). The emulsifiable concentrates also included a safener, cloquintocet-mexyl, at 120 grams active ingredient per liter (g ai/L), unless otherwise noted below. An aliquot of each emulsifiable concentrate was placed in a 25 mL glass vial and diluted with an aqueous mixture of 1.25% (v/v) ACTIROB® B esterified rapeseed oil (Bayer Crop Science, Research Triangle Park, N.C., USA) or MSO® Concentrate with LECI-TECH® methylated soybean oil (Loveland Products, Loveland, Colo., USA) to obtain concentrated stock solutions at the highest application rate for each herbicide, based upon a 12 milliliter (mL) application volume at a rate of 187 liters per hectare (L/ha). The concentrated stock solutions were further diluted with an aqueous mixture of 1.25% v/v ACTIROB® B or MSO® Concentrate with LECI-TECH® to obtain stock solutions at reduced application rates for each herbicide. Spray solutions of the herbicide combinations (Compound A or Compound B plus PS-II herbicide and optional HPPD herbicide) were prepared by adding weighed amounts or aliquots of the PS-II herbicide and optional HPPD herbicide to the stock solutions of Compound A or Compound B to form 12-mL spray solutions in two- or three-way combinations.
# (§4) The spray solutions were applied to the plant material with an overhead Mandel track sprayer equipped with 8002E nozzles calibrated to deliver 187 L/ha over an application area of 0.503 square meters (m^2) at a spray height of 18 inches ([…] centimeters (cm)) above the average plant canopy. Control plants were sprayed in the same manner with the solvent blank. All pyridine carboxylate herbicide (component a) application rates are given as “g ae/ha” and all PS II inhibitor herbicide (component b) and HPPD inhibitor herbicide (component c) application rates are given as “g ai/ha.”
# (§5) The treated plants and control plants were placed in a greenhouse as described above and watered by sub-irrigation to prevent wash-off of the test compounds. After 20-22 d, the condition of the test plants as compared with that of the control plants was determined visually and scored on a scale of 0 to 100 percent where 0 corresponds to no injury and 100 corresponds to complete kill.
# [2] = tested on: KCHSC, Kochia scoparia (kochia); assay: as above
# Excerpt: as §1, §2, §3, §4, §5
# [3] = tested on: SASKR, Salsola kali (Russian thistle); assay: as above
# Excerpt: as §1, §2, §3, §4, §5
# [4] = tested on: BRSNN, Brassica napus (spring rape); assay: as above
# Excerpt: as §1, §2, §3, §4, §5
# [5] = tested on: CHEAL, Chenopodium album L. (common lambsquarters); assay: as above
# Excerpt: as §1, §2, §3, §4, §5
# [6] = tested on: SINAR, Sinapis arvensis (wild mustard); assay: as above
# Excerpt: as §1, §2, §3, §4, §5
# [7] = tested on: TRZAS, Triticum aestivum (spring wheat); assay: Greenhouse postemergence phytotoxicity on crop (visual injury, 20-22 d)
# Excerpt: as §1, §2, §3, §4, §5
# [8] = tested on: HORVS, Hordeum vulgare (spring barley); assay: as above
# Excerpt: as §1, §2, §3, §4, §5
# [9] = tested on: BRSNW, Brassica napus (winter rape); assay: Greenhouse postemergence herbicidal effect (visual injury, 20-22 d)
# Excerpt: as §1, §2, §3, §4, §5
# [10] = tested on: AMARE, Amaranthus retroflexus (pigweed); assay: as above
# Excerpt: as §1, §2, §3, §4, §5
# [11] = tested on: MATCH, Matricaria chamomilla (wild chamomile); assay: as above
# Excerpt: as §1, §2, §3, §4, §5
# [12] = tested on: CIRAR, Cirsium arvense (Canada thistle); assay: as above
# Excerpt: as §1, §2, §3, §4, §5
# [13] = tested on: ALOMY, Alopecurus myosuroides (blackgrass); assay: as above; settings: 450 g ai/ha alone
# Excerpt: as §1, §2, §3, §4, §5
# [14] = tested on: AVEFA, Avena fatua (wild oat); assay: as above; settings: 450 g ai/ha alone
# Excerpt: as §1, §2, §3, §4, §5
# [15] = tested on: VIOTR, Viola tricolor (wild pansy); assay: as above; settings: 450 g ai/ha alone
# Excerpt: as §1, §2, §3, §4, §5
# [16] = Fallopia convolvulus, post-emergence, read-out: visual injury Obs
smiles,measurement,setting,value
"CCCCCCCCSC(=O)Oc1cc(Cl)nnc1-c1ccccc1 [Pyridate, O-6-chloro-3-phenylpyridazin-4-yl S-octyl thiocarbonate]",pest or weed control at 125 g/ha,"[1]; Fallopia convolvulus, post-emergence, 125 g ai/ha alone, read-out: visual injury Obs",0%
same,visual injury Obs,[2]; 125 g ai/ha alone,0%
same,visual injury Obs,[3]; 125 g ai/ha alone,0%
same,visual injury Obs,[4]; 125 g ai/ha alone,15%
same,visual injury Obs,[5]; 125 g ai/ha alone,0%
same,visual injury Obs,[6]; 125 g ai/ha alone,0%
same,visual injury Obs,[7]; 125 g ai/ha alone,0%
same,visual injury Obs,[8]; 125 g ai/ha alone,5%
"CCOC(=O)Nc1cccc(OC(=O)Nc2ccccc2)c1 [Desmedipham, 3-ethoxycarbonylaminophenyl phenylcarbamate]",pest or weed control at 162.5 g/ha,[1]; [16],0%
same,visual injury Obs,[9]; 162.5 g ai/ha alone,0%
same,visual injury Obs,[2]; 162.5 g ai/ha alone,0%
same,visual injury Obs,[10]; 162.5 g ai/ha alone,15%
same,visual injury Obs,[3]; 162.5 g ai/ha alone,0%
same,visual injury Obs,[5]; 162.5 g ai/ha alone,0%
same,visual injury Obs,[11]; 162.5 g ai/ha alone,0%
same,visual injury Obs,[12]; 162.5 g ai/ha alone,10%
same,visual injury Obs,[6]; 162.5 g ai/ha alone,0%
same,visual injury Obs,[7]; 162.5 g ai/ha alone,0%
same,visual injury Obs,[8]; 162.5 g ai/ha alone,0%
"CCNc1nc(Cl)nc(NC(C)C)n1 [Atrazine, 6-chloro-N^2-ethyl-N^4-isopropyl-1,3,5-triazine-2,4-diamine, reference compound]",visual injury Obs,[13],25%
same,visual injury Obs,[14],13%
same,visual injury Obs,[4]; 450 g ai/ha alone,28%
same,visual injury Obs,[15],20%
"CCC(C)n1c(=O)[nH]c(C)c(Br)c1=O (stereo not drawn) [Bromacil, 5-bromo-3-sec-butyl-6-methyluracil]",pest or weed control at 900 g/ha,[1]; [16],10%
same,visual injury Obs,[9]; 900 g ai/ha alone,5%
same,visual injury Obs,[2]; 900 g ai/ha alone,91%
same,visual injury Obs,[10]; 900 g ai/ha alone,20%
same,visual injury Obs,[3]; 900 g ai/ha alone,25%
same,visual injury Obs,[5]; 900 g ai/ha alone,53%
same,visual injury Obs,[11]; 900 g ai/ha alone,5%
same,visual injury Obs,[12]; 900 g ai/ha alone,18%
same,visual injury Obs,[6]; 900 g ai/ha alone,35%
same,visual injury Obs,[7]; 900 g ai/ha alone,0%
same,visual injury Obs,[8]; 900 g ai/ha alone,10%
"CSc1nnc(C(C)(C)C)c(=O)n1N [Metribuzin, 4-amino-6-tert-butyl-3-methythio-1,2,4-triazin-5(4H)-one]",visual injury,[1]; 25 g ai/ha alone,0%
same,visual injury,[9]; 25 g ai/ha alone,0%
same,visual injury,[2]; 25 g ai/ha alone,0%
same,visual injury,[10]; 25 g ai/ha alone,0%
same,visual injury,[3]; 25 g ai/ha alone,0%
same,visual injury,[5]; 25 g ai/ha alone,3%
same,visual injury,[11]; 25 g ai/ha alone,0%
same,visual injury,[12]; 25 g ai/ha alone,3%
same,visual injury,[6]; 25 g ai/ha alone,18%
same,visual injury,[7]; 25 g ai/ha alone,0%
same,visual injury,[8]; 25 g ai/ha alone,0%
"CC(C)c1nn(C(=O)NC(C)(C)C)c(=O)n1N [Amicarbazone, 4-amino-N-tert-butyl-4,5-dihydro-3-isopropyl-5-oxo-1H-1,2,4-triazole-1-carboxamide]",pest or weed control at 175 g/ha,"[1]; Fallopia convolvulus, post-emergence, 175 g ai/ha alone, read-out: visual injury Obs",10%
same,visual injury Obs,[2]; 175 g ai/ha alone,25%
same,visual injury Obs,[3]; 175 g ai/ha alone,0%
same,visual injury Obs,[4]; 175 g ai/ha alone,38%
same,visual injury Obs,[5]; 175 g ai/ha alone,38%
same,visual injury Obs,[6]; 175 g ai/ha alone,25%
